Legend:
Assay type in all cases: in vivo
Musca domestica = assay: Test Example 3: treated filter paper with sucrose bait, Musca domestica; details: 500 ppm, 0.7 ml on filter paper; ten female Musca domestica imagoes; after 24 hours; read-out: rate of dead pests
Method: (§1) The formulation obtained according to Formulation Example 5 using the compound of the present invention (2), (3), (4), (6), (7), (8), (11), (12), (13), (15), (16), (19), (20), (21), (22), (28), (29), (30), (31), (32), (33), (34), (36), (37), (38) and (39) respectively, was diluted with water so that the active ingredient concentration came to 500 ppm to prepare a pesticidal solution for test.
(§2) On the bottom of a polyethylene cup having a diameter of 5.5 cm, a filter paper having the same diameter was laid, and 0.7 ml of the above pesticidal solution for test was added dropwise on the filter paper, followed by putting 30 mg of sucrose on it uniformly as a bait. Ten female Musca domestica imagoes were set free in the polyethylene cup and covered it with a lid. After 24 hours, the number of surviving and dead Musca domestica was examined and the rate of dead pests was calculated.

Culex pipiens pallens = assay: Test Example 5: larvae in treated water, Culex pipiens pallens; details: 24 h; active ingredient concentration 3.5 ppm in water; twenty last-instar larvae of Culex pipiens pallens; after one day; read-out: rate of dead pests
Method: The formulation obtained according to Formulation Example 5 using the compound of the present invention (1), (2), (3), (4), (5), (6), (7), (8), (9), (10), (11), (12), (13), (14), (15), (16), (17), (18), (19), (20), (21), (22), (23), (25), (27), (28), (29), […], (31), (32), (33), (34), (35), (36), (37), (38), (39), (41), (44), (45), (46), (47) and (48) respectively, was diluted with water so that the active ingredient concentration came to 500 ppm to prepare a pesticidal solution for test.
0.7 ml of above pesticidal solution for test was added to 100 ml of ion exchanged water (active ingredient concentration: 3.5 ppm). Twenty last-instar larvae of Culex pipiens pallens were set free in the solution. After one day, the number of surviving and dead Culex pipiens pallens was examined and the rate of dead pests was calculated.

Blattella germanica = assay: Test Example 4: treated filter paper with sucrose bait, Blattella germanica; details: 144 h; 500 ppm, 0.7 ml on filter paper; two male Blattella germanica imagoes; after 6 days; read-out: rate of dead pests
Method: as §1, with “(8), (9),” for “(8),”, “(16), (18),” for “(16),”, “(22), (27),” for “(22),”, “(34), (35),” for “(34),”, “(38), (43)” for “(38)”, “[…]” for “(39)”
as §2, with “Two male Blattella germanica” for “Ten female Musca domestica”, “6 days,” for “24 hours,”, “Blattella germanica” for “Musca domestica”

| SMILES | pest or weed control at 500 ppm (Musca domestica) [%] | pest or weed control at 3.5 ppm (Culex pipiens pallens) [%] | pest or weed control at 500 ppm (Blattella germanica) [%] |
| --- | --- | --- | --- |
| N#CC(C#N)(CCC(F)(F)F)Cn1cnc(C(F)(F)F)n1 [compound of the present invention (33), {[3-(trifluoromethyl)-1H-1,2,4-triazole-1-yl]methyl}(3,3,3-trifluoropropyl)malononitrile] | ≥ 90 | ≥ 95 | 100 |
| N#CC(C#N)(CCC(F)(F)F)Cn1cnc(C(F)(F)C(F)(F)F)n1 [compound of the present invention (34), {[3-(pentafluoroethyl)-1H-1,2,4-triazole 1-yl]methyl}(3,3,3-trifluoropropyl) malononitrile] | ≥ 90 | ≥ 95 | 100 |
| N#CC(C#N)(CCC(F)(F)F)Cn1ccc(C(F)(F)C(F)(F)F)n1 [compound of the present invention (36), {[3-(pentafluoroethyl)-1H-pyrazole-1-yl]methyl}(3,3,3-trifluoropropyl)malononitrile] | ≥ 90 | ≥ 95 | 100 |
| N#CC(C#N)(CCC(F)(F)F)Cn1cc(Br)c(C(F)(F)C(F)(F)F)n1 [compound of the present invention (37), [(4-bromo-3-(pentafluoroethyl)-1H-pyrazole-1-yl)methyl](3,3,3-trifluoropropyl) malononitrile] | ≥ 90 | ≥ 95 | 100 |
| N#CC(C#N)(CCC(F)(F)F)Cn1cnc(C(F)(F)F)c1 [compound of the present invention (38), {[4-(trifluoromethyl)-1H-imidazole-1-yl]methyl}(3,3,3-trifluoropropyl) malononitrile] | ≥ 90 | ≥ 95 | 100 |
